Type in all cases: protein assay
The target of series [1] is T1, Monoamine oxidase (Homo sapiens, UniProt P21397+P27338).
T1 sequence (P21397 whole entry): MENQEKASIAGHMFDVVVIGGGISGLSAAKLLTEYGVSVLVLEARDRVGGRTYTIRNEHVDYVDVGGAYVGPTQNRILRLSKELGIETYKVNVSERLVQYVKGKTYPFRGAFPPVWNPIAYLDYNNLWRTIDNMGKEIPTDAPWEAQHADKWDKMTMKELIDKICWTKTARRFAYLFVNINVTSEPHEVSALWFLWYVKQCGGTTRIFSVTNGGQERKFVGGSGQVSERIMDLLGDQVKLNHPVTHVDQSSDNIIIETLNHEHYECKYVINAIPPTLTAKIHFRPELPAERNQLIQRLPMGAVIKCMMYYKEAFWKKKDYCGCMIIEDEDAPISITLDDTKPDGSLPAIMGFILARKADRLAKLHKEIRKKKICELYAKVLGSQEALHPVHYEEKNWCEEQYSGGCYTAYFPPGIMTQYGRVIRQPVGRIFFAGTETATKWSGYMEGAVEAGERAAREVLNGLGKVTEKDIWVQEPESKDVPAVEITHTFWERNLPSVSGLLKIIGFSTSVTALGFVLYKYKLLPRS
T1 sequence (P27338 whole entry): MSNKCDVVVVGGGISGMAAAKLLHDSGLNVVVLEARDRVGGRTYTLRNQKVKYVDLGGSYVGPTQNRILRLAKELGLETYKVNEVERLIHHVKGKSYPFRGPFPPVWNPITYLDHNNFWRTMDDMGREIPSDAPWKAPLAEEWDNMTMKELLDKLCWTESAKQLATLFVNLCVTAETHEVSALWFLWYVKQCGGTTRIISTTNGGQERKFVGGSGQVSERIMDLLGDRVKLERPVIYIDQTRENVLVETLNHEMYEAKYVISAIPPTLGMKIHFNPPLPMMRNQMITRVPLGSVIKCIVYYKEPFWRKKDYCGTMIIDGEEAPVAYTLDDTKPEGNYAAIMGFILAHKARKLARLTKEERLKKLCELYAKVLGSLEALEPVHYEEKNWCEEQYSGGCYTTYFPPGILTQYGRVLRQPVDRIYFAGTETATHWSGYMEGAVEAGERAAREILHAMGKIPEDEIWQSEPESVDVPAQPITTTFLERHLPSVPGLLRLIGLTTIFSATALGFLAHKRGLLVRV
Description: Evaluated for (Ki value) in competition with oxidation of benzylamine.

The target of series [2] is T1, Monoamine oxidase. Kind of series: Evaluated for (Ki value) inactivation of Monoamine oxidase at saturation.
Series [3] deals with T1, Monoamine oxidase. Kind of series: Kinetic parameter (Km value) was determined.
In series [4] the target is T1, Monoamine oxidase. Description: Kinetic parameter (Kcat value) was determined.

The source of these data is ChEMBL document CHEMBL1123132, “1-Benzylcyclopropylamine and 1-(phenylcyclopropyl)methylamine: an inactivator and a substrate of monoamine oxidase” (J Med Chem, 1985).

As for `NC1(Cc2ccccc2)CC1`, the values for the Ki at Monoamine oxidase [1] and at Monoamine oxidase [2] were 51 µM and 480 µM, respectively.
As usually defined, the Km is the substrate concentration at which the rate is half of its maximum. As for `NCC1(c2ccccc2)CC1`, on Monoamine oxidase [1], the Ki was found to be 50 µM. Also, at Monoamine oxidase [3], the Km was determined as 40 µM. Also, the k cat at Monoamine oxidase [4] worked out at 1.52 s⁻¹.
